Assay results reported in patent US9567319B2, “Compound having higher inhibitory activity on protein kinase G and preparation method thereof” (Jenkem Technology Co., Ltd., (Tianjin), priority 2014, dated 2017).

Assay: Test of water solubility of the compounds
Settings: for Volume of added water: about 0.1 g sample, water added until dissolved; for water solubility, times higher than that of compound 46: relative to compound 46 (parent compound); for solubility: water
Protocol: At room temperature, about 0.1 g of each sample to be tested (solid materials should be ground as powder) was added to a 10 mL cylinder with a ground glass stopper. Water was gradually added. After each addition of 0.5 mL water, the resulting solution was stirred for 10 min for mixing, and was then visually examined for the presence of any undissolved sample. If there still exists undissolved sample or undissolved portions of the sample after 10 mL water was added, the test would be continued in a 100 mL cylinder.

Row | Volume of added water (room temperature) [mL] | solubility (thermodynamic from solid) [µg/mL] | Compound | water solubility, times higher than that of compound 46 | solubility (room temperature) [µg/mL]
1 | 12.5 | 8000 | COc1ccc(OCCOCCO)c(C(=O)c2ccc(C(=O)N[C@@H]3CNC[C@H]3NC(=O)c3ccc4cn[nH]c4c3)cc2)c1F.Cl [JK-M02H, (3R,4R)-3-{4-[2-fluoro-3-methoxy-6-(5-hydroxy-3-oxapentan-1-oxy)]benzoyl}benzamido-4-(1H-indazole-6-carboxamido)pyrrolidine hydrochloride] | – | –
2 | 22.0 | 4500 | CCCOCCOCCOc1ccc(OC)c(F)c1C(=O)c1ccc(C(=O)N[C@@H]2CNC[C@H]2NC(=O)c2ccc3cn[nH]c3c2)cc1.Cl [JK-M02P, (3R,4R)-3-{4-[2-fluoro-3-methoxy-6-(4,7-dioxanonan-9-oxy)]benzoyl}benzamido-4-(1H-indazole-6-carboxamido)pyrrolidine hydrochloride] | – | –

Continued, compound first:

Row | Compound | Volume of added water (room temperature) [mL] | solubility (thermodynamic from solid) [µg/mL] | water solubility, times higher than that of compound 46 | solubility (room temperature) [µg/mL]
3 | CCCOCCOCCOc1ccc(F)c(F)c1C(=O)c1ccc(C(=O)N[C@@H]2CNC[C@H]2NC(=O)c2ccc3cn[nH]c3c2)cc1.Cl [JK-02P, (3R,4R)-3-{4-[2,3-difluoro-6-(3,6-dioxanonan-1-oxy)]benzoyl}benzamido-4-(1H-indazole-6-carboxamido)pyrrolidine hydrochloride] | 22.5 | 4400 | about 3 times | –
4 | COCCOCCOCCOc1ccc(F)c(F)c1C(=O)c1ccc(C(=O)N[C@@H]2CNC[C@H]2NC(=O)c2ccc3cn[nH]c3c2)cc1.Cl [JK-03M, (3R,4R)-3-{4-[2,3-difluoro-6-(2,5,8-trioxadecan-10-oxy)]benzoyl}benzamido-4-(1H-indazole-6-carboxamido)pyrrolidine hydrochloride] | 16.5 | – | about 4 times | 6100
5 | COCCOCCOCCOCCOCCOCCOCCOc1ccc(OC)c(F)c1C(=O)c1ccc(C(=O)N[C@@H]2CNC[C@H]2NC(=O)c2ccc3cn[nH]c3c2)cc1.Cl [JK-M07M, (3R,4R)-3-{4-[2-fluoro-3-methoxy-6-(2,5,8,11,14,17,20-heptaoxadocosan-22-oxy)]benzoyl}benzamido-4-(1H-indazole-6-carboxamido)pyrrolidine hydrochloride] | 7.5 | – | – | 13300
